{"source": "patent US12403114B2", "about": "“Cannabinoid acid ester compositions and uses thereof” (EPM (IP), INC., priority 2019, dated 2025)", "test_system": "Human hepatoma HepG2 cells", "test": "Fat accumulation in hepatocytes (Nile-Red)", "assay_type": "cell-based", "conditions": "0.3 mM oleic:palmitic acids, 24 hr; EPM-301 effect at high (50 and 10 μM) and low (0.025 and 0.001 μM) concentrations, bell-shaped (FIG. 37, 38)", "description": "An in vitro model of fat accumulation in hepatocytes was used to test whether compounds EPM-301 and EPM-302 have the ability to reduce lipid accumulation in hepatocytes Human hepatoma HepG2 cells were maintained at 37° C. in 5% CO2 in DMEM medium supplemented with 10% FCS, 2 mM 1-glutamine, 1 mM sodium pyruvate, 100 U/mL penicillin and […] streptomycin. Free fatty acids (2:1, molar ratio, oleic and palmitic acids) were mixed with bovine serum albumin (BSA). Cells were incubated with fatty acid-BSA complex in FCS-free culture medium at 0.3 mM final concentration of fatty acid and 1% of BSA. Control cell cultures were incubated with medium containing the vehicle. Compounds were tested in a range of concentrations in the presence of fatty acids. After 24 hr of incubation with the compounds, the cells were washed, incubated with 1 μg/mL mixture of Nile-Red/Hoechst solution for 15 mins at 37° C. protected from light. Fluorescence was measured by the Cytation-3 plate reader at ex:488 nm/em:550 nm and ex:350 nm/em:461 nm for Nile-Red and Hoechst, respectively. Results were normalized to total protein levels of each well, and presented as a change in the accumulation of lipids in comparison with Vehicle-treated group.\n[…] EPM-301 at 50 μM was used as positive control.\nValues are expressed as mean±SEM. […]", "note": "“Also recorded” adds a separate entry of the source.", "data": [{"smiles": "C=C(C)[C@@H]1CCC(C)=CC1c1c(O)cc(CCCCC)c(C(=O)OC)c1O", "note": "(stereo partly shown) [EPM-301, cannabidiolic acid methyl ester]", "values": [{"measurement": "amount of fat accumulation in hepatocytes", "result": "significantly reduce; also recorded: ineffective"}]}]}
